Source: ChEMBL document CHEMBL1137785, “Discovery of geranylgeranyltransferase-I inhibitors with novel scaffolds by the means of quantitative structure-activity relationship modeling, virtual screening, and experimental validation” (J Med Chem, 2009)

Experiment: Displacement of [3H]GGpp from GGTase1 expressed in Sf9 cells

Row | Structure (SMILES) | pIC50 | further results
1 | CC[C@@H](C(=O)NCc1ccccc1)N(Cc1ccccc1Cl)C(=O)Cn1nnc(-c2ccc(C)cc2)n1 |  | IC50 (read-out: IC50): 35 µM
2 | CCN(C(=O)CCCOc1cc(-c2cccnc2)nn1-c1ccc(Cl)c(Cl)c1)C(CC(N)=O)c1ccc(C)cc1 (stereo not given) | 6.27 | 
3 | CCCC[C@H](NC(=O)c1ccc(NCNCCCCS)cc1-c1ccccc1)C(=O)O | 7.14 | 
4 | Cc1ccc(C(CC(N)=O)NC(=O)CC(=O)COc2cc(-c3cccnc3)nn2-c2ccc(Cl)c(Cl)c2)cc1 (stereo not given) | 4.86 | 
5 | O=C(Cn1c(=O)n(Cc2c[nH]cn2)c(=O)c2ccccc21)N[C@@H](Cc1ccccc1)C(=O)O | 5.77 | 
6 | Cc1ccc(C(CO)NC(=O)c2ccc(-c3cc(-c4cccnc4)nn3-c3ccc(Cl)c(Cl)c3)s2)cc1 (stereo not given) | 5.11 | 
7 | Cc1ccc(C(CC(N)=O)NC(=O)C[C@H](O)COc2cc(-c3cccnc3)nn2-c2ccc(Cl)c(Cl)c2)cc1 (stereo not given in full) | 5.79 | 
8 | NC(=O)CC(NC(=O)CCCNc1cc(-c2cccnc2)nn1-c1ccc(Cl)c(Cl)c1)c1cccnc1 (stereo not given) | 6.32 | 
9 | CCc1ccc(OCc2nnc(SCC(=O)Nc3ccc(C(N)=O)cc3)n2C(C)c2ccccc2)cc1 (stereo not given) |  | IC50 (read-out: IC50): 43 µM
10 | COCCN(CCC(=O)NC(CC(N)=O)c1ccc(C)cc1)Cc1cc(-c2cccnc2)nn1-c1ccc(Cl)c(Cl)c1 (stereo not given) | 7 | 
11 | Cc1ccc(C(CC(N)=O)NC(=O)CC(=O)CNc2cc(-c3cccnc3)nn2-c2ccc(Cl)c(Cl)c2)cc1 (stereo not given) | 5.23 | 
12 | CCN(CCCC(=O)NC(CC(N)=O)c1ccc(C)cc1)c1cc(-c2cccnc2)nn1-c1ccc(Cl)c(Cl)c1 (stereo not given) | 5.7 | 
13 | CSCCCc1c(-c2cccnc2)nn(-c2ccc(Cl)c(Cl)c2)c1OCCCC(=O)NC(CC(N)=O)c1ccc(C)cc1 (stereo not given) | 7.55 | 
14 | Cc1ccc(C(CC(N)=O)NC(=O)[C@H]2C[C@H](c3cc(-c4cccnc4)nn3-c3ccc(Cl)c(Cl)c3)C2(C)C)cc1 (stereo not given in full) | 5.94 | 
15 | Cc1ccc([C@@H](CC(N)=O)NC(=O)c2ccc(-c3cc(-c4cccnc4)nn3-c3ccc(Cl)c(Cl)c3)s2)cc1 | 4.68 | 
16 | O=C(O)CNC(=O)[C@H](Cc1c[nH]c2ccccc12)NC(=O)Cn1c(=O)[nH]c2ccccc2c1=O |  | IC50: > 100 µM
17 | Cc1ccc(C(NC(=O)c2ccc(-c3cc(-c4cccnc4)nn3-c3ccc(Cl)c(Cl)c3)s2)C(O)C(N)=O)cc1 (stereo not given) | 5.08 | 

Row | Structure (SMILES) | pIC50 | further results
18 | NC(=O)CN(CC1CCCCC1)C(=O)CCCOc1cc(-c2cccnc2)nn1-c1ccc(Cl)c(Cl)c1 | 5.84 | 
19 | Cc1ccc(C(CC(N)=O)NC(=O)CCCOc2c(CCCO)c(-c3cccnc3)nn2-c2ccc(Cl)c(Cl)c2)cc1 (stereo not given) | 7.17 | 
20 | Cc1ccc(C(CC(N)=O)NC(=O)C2CCCN(Cc3cc(-c4cccnc4)nn3-c3ccc(Cl)c(Cl)c3)C2)cc1 (stereo not given) | 4.3 | 
21 | O=C(O)C[C@H](Cc1c[nH]c2ccccc12)NC(=O)Cn1c(=O)[nH]c2ccccc2c1=O |  | IC50: > 100 µM
22 | Cc1ccc(CCN(CC(N)=O)C(=O)CCCOc2cc(-c3cccnc3)nn2-c2ccc(Cl)c(Cl)c2)cc1 | 5.82 | 
23 | Cc1ccc(C(CC(N)=O)NC(=O)CCCCOc2cc(-c3cccnc3)nn2-c2ccc(Cl)c(Cl)c2)cc1 (stereo not given) | 5.53 | 
24 | Cc1ccc(C(CC(N)=O)NC(=O)CC(=O)Nc2cc(-c3cccnc3)nn2-c2ccc(Cl)c(Cl)c2)cc1 (stereo not given) | 5.58 | 
25 | Cc1ccc(-c2cc(NCNCCCCS)ccc2C(=O)N[C@@H](CCC(C)C)C(=O)O)cc1 | 6.68 | 
26 | Cc1ccc(C(CC(N)=O)NC(=O)c2ccc(-c3cc(-c4cccnc4)nn3-c3ccc(Cl)c(Cl)c3)s2)cc1 (stereo not given) | 4.35 | 
27 | Cc1ccc(C(CC(N)=O)NC(=O)CCCN(CCN2CCOCC2)c2cc(-c3cccnc3)nn2-c2ccc(Cl)c(Cl)c2)cc1 (stereo not given) | 5.09 | 
28 | Cc1ccc(C(CC(=O)O)NC(=O)c2ccc(-c3cc(-c4cccnc4)nn3-c3ccc(Cl)c(Cl)c3)s2)cc1 (stereo not given) | 5.73 | 
29 | Cc1ccc(CN(CC(N)=O)C(=O)CCCCc2cc(-c3cccnc3)nn2-c2ccc(Cl)c(Cl)c2)cc1 | 4.53 | 
30 | Cc1ccc(C(CC(N)=O)NC(=O)CCNCc2cc(-c3cccnc3)nn2-c2ccc(Cl)c(Cl)c2)cc1 (stereo not given) | 6.35 | 
31 | Cc1ccc(C(CC(N)=O)NC(=O)COc2cc(-c3cccnc3)nn2-c2ccc(Cl)c(Cl)c2)cc1 (stereo not given) | 4.43 | 
32 | Cc1ccc(C(CC(N)=O)NC(=O)CC[C@H](C)Nc2cc(-c3cccnc3)nn2-c2ccc(Cl)c(Cl)c2)cc1 (stereo not given in full) | 6.23 | 
33 | NC(=O)CC(NC(=O)c1ccc(-c2cc(-c3cccnc3)nn2-c2ccc(Cl)c(Cl)c2)s1)OCc1ccccc1 (stereo not given) | 5.57 | 

The next lines start with results.

Row | pIC50 | Structure (SMILES) | further results
34 | 5.97 | Cc1ccc(C(NC(=O)CCCOc2cc(-c3cccnc3)nn2-c2ccc(Cl)c(Cl)c2)C(=N)N)cc1 (stereo not given) | 
35 | 5.4 | Cc1ccc(C(NC(N)=O)NC(=O)CCCOc2cc(-c3cccnc3)nn2-c2ccc(Cl)c(Cl)c2)cc1 (stereo not given) | 
36 | 4.02 | CCCOc1ccc(-c2nn(-c3ccccc3)cc2/C=N/NC(=O)CNC(=O)c2cccc(Cl)c2)cc1 | 
37 | 5.56 | Cc1ccc(C(=O)N/C(=C\c2ccc(-c3ccc(Cl)c(Cl)c3)o2)C(=O)NCc2ccccc2)cc1 | 
38 | 5.63 | NC(=O)CC(NC(=O)c1ccc(-c2cc(-c3cccnc3)nn2-c2ccc(Cl)c(Cl)c2)cc1)OCc1ccccc1 (stereo not given) | 
39 | 3.84 | Cc1ccc([C@@H](CC(N)=O)NC(=O)c2ccc(-c3cc(-c4cccnc4)nn3-c3ccc(Cl)c(Cl)c3)cc2)cc1 | 
40 | 3.84 | Cc1ccc(C(=O)N/C(=C/c2ccc(-c3ccc(Cl)c(Cl)c3)o2)C(=O)NCc2ccccc2)cc1 | IC50 (read-out: IC50): 8 µM
41 | 4.43 | CCCC(C(=O)NCc1ccccc1)N(Cc1ccccc1Cl)C(=O)Cn1nnc(-c2ccc(Cl)cc2)n1 (stereo not given) | 
42 | 5.56 | COc1ccc(OCc2nnc(SCC(=O)Nc3ccc(C(N)=O)cc3)n2CCc2ccccc2)cc1 | 
43 | 4.19 | CCCn1c(COc2ccc(C(C)Cc3ccccc3)cc2)nnc1SCC(=O)Nc1ccc(C(N)=O)cc1 (stereo not given) | 
44 | 5.82 | Cc1ccc(C(CC(N)=O)NC(=O)c2ccc(-c3cc(-c4cccnc4)nn3-c3ccc(Cl)c(Cl)c3)cc2)cc1 (stereo not given) | 
45 | 4.02 | Cc1ccc(C(CC(N)=O)NC(=O)c2ccc(-c3cc(-c4cccnc4)nn3CCc3ccccc3)s2)cc1 (stereo not given) | 
46 | 4.43 | Cc1ccc(-c2nn(-c3ccccc3)cc2/C=N/NC(=O)C(=O)Nc2cc(Cl)ccc2Cl)cc1 | 
47 | 4.19 | CC(C)c1ccc(N(CC(=O)NCc2ccccc2)C(=O)Cn2nnc(-c3ccc(Cl)cc3)n2)cc1 | 
48 | 5.56 | COc1ccccc1-c1nnc(SCC(=O)Nc2ccc(C(N)=O)cc2)n1CCc1ccccc1 | 
49 | 6.21 | NC(=O)CC(NC(=O)CCCOc1cc(-c2cccnc2)nn1-c1ccc(Cl)c(Cl)c1)c1ccc(-c2ccccc2)cc1 (stereo not given) | 
